Reference: patent US20070173462A1, “Treatment of diseases associated with the use of antibiotics” (Optimer Pharmaceuticals, Inc., priority 2004, published 2007)
Values after ≈ are worked out from the molar mass of the structure shown. Read-outs that look alike come from different tables or passages of the source.

Assays:
Type in all cases: cell-based
Clostridium difficile = experiment: MIC, 207 clinical isolates of C. difficile
Excerpt: Compound I was additionally tested against anaerobic clinical isolates and against aerobic bacteria. […] The compound was also active against clinical strains of Staphylococcus sp. and Enterococcus sp.

Eschericia coli = experiment: organism not typed; conditions: clinical gastrointestinal isolates, n=10
C. bolteae = experiment: microbe, parasite or virus in culture; conditions: Enterocloster bolteae; clinical isolates, n=6
C. glycolicum = experiment: microbe, parasite or virus in culture; conditions: clinical isolates, n=9
Pseudomonas aeruginosa = experiment: microbe, parasite or virus in culture; conditions: clinical gastrointestinal isolates, n=10
Neisseria sp. = experiment: MIC, ATCC laboratory strains (NCCLS guidelines); conditions: n=3, in µg/mL
Method: The activity of Compound I was tested against laboratory strains of different species of bacteria using NCCLS antimicrobial susceptibility testing guidelines. […] Including MRSA and Enterococcus sp. Including VRE (Table. 2).

For CCc1c(Cl)c(O)c(Cl)c(O)c1C(=O)O[C@H]1[C@H](O)[C@H](OC)[C@H](OC/C2=C\C=C\C[C@H](O)/C(C)=C/[C@H](CC)C(O[C@@H]3OC(C)(C)[C@@H](OC(=O)C(C)C)[C@H](O)[C@@H]3O)/C(C)=C/C(C)=C/C[C@@H](C(C)O)OC2=O)O[C@@H]1C (stereo partly drawn) [Compound I], the MIC90 (Clostridium difficile; Clostridioides difficile, clinical isolates, n=207) was 0.008 µg/mL (≈ 0.00756 µM), the MIC50 (Clostridium difficile; Clostridioides difficile, clinical isolates, n=207, read-out: MIC50) was 0.0019 µg/mL (≈ 0.0018 µM) and the MIC50 (Clostridium difficile; clinical isolates, n=207) was 0.002 µg/mL (≈ 0.00189 µM). The “sensitivity of isolates (in words)” value (Clostridium difficile; panel of 207 C. difficile clinical isolates) was “very sensitive”, the MIC50 (Eschericia coli) was > 256 µg/mL and the MIC90 (Eschericia coli) was > 256 µg/mL. The “Range (MIC)” value (Eschericia coli) was >256 µg/mL, the MIC50 (C. bolteae) was > 1020 µg/mL and the MIC90 (C. bolteae) was > 1020 µg/mL. The MIC50 (C. glycolicum; Terrisporobacter glycolicus) was 0.062 µg/mL (≈ 0.0586 µM), the MIC90 (C. glycolicum; Terrisporobacter glycolicus) was 1 µg/mL (≈ 0.945 µM) and the “Range (MIC)” value (C. glycolicum) was 0.062 to 1 µg/mL. For the same compound, the MIC50 (Pseudomonas aeruginosa) was > 256 µg/mL, the MIC90 (Pseudomonas aeruginosa) was > 256 µg/mL and the “Range (MIC)” value (Neisseria sp.) was 8-64.
